The values below come from EP0393530B1, “5,11-dihydro-6H-pyrido[2,3,-b][1,4]benzodiazepin-6-ones and -thiones and their use in the prevention or treatment of AIDS” (BOEHRINGER INGELHEIM PHARMACEUTICALS INC., priority 1989, dated 1990).

What is called inhibition is the relative decrease from the control value, in per cent. Lower therefore signals a response near the control.

Series [1] addresses T1, HIV-1 reverse transcriptase (Human immunodeficiency virus type 1 group M subtype B, UniProt P03367).
T1 construct: Reverse transcriptase enzyme from the LAV strain of Human Immunodeficiency Virus (HIV-1); made in house; host or cells: E. coli JM109, clone pBRTprt1+ in vector pIBI21 (lac promoter, IPTG induction)
Description: Reverse Transcriptase (RT) Assay. It counts as biochemical. To be noted: RNA-dependent DNA polymerase activity. From the text: Utilizing the Reverse Transcriptase (RT) Assay described below, compounds can be tested for their ability to inhibit the RNA-dependent DNA polymerase activity of HIV RT. Certain specific compounds, described in the Examples which appear below, were so tested.
Among the enzymes for which Human Immunodeficiency Virus (HIV-1) encodes is a reverse transcriptase (1), so-named because it transcribes a DNA copy from an RNA template. This activity can be quantitatively measured in a cell-free enzyme assay which has been previously described (2), and is based upon the observation that reverse transcriptase is able to use a synthetic template [poly r(C) primed with oligo d(G)] to transcribe a radio-labelled, acid-precipitable DNA strand utilizing ³H-dGTP as a substrate.
a) Preparation of the enzyme Reverse transcriptase enzyme from the LAV strain of Human Immunodeficiency Virus (HIV-1) (1) was isolated from the bacterial strain JM109 (3) expressing the DNA clone pBRTprt1+ (2) which is under the control of the lac promotor in the expression vector pIBI21 (4). An overnight culture grown in 2XYT medium (37°C, 225 rpm) (5) supplemented with 100 µg/ml ampicillin for positive selection is inoculated at a 1:40 dilution into M9 medium supplemented with 10µg/ml thiamine, 0.5% casamino acids, and 50 µg/ml ampicillin (5). The culture is incubated (37°C, 225 rpm) until it reaches an OD540 of 0.3-0.4. At that time the repressor inhibitor IPTG (isopropyl b-D-thiogalactopyranoside) is added to 0.5mM and incubated for 2 additional hours. Bacteria are pelleted, resuspended in a 50mM Tris, 0.6mM EDTA, 0.375M NaCl buffer and digested by the addition of lysozyme (1mg/ml) for 30 minutes on ice. The cells are lysed by the addition to 0.2% NP-40 and brought to 1M NaCl. After removal of the insoluble debris by centrifugation, the protein is precipitated by the addition of 3 volumes of saturated aqueous ammonium sulfate. The enzyme is pelleted, resuspended in RT buffer (50mM Tris pH 7.5, 1mM EDTA, 5mM DTT, 0.1% NP-40, 0.1M NaCl, and 50% glycerol) and stored at -70°C for further use. b) Composition of 2X concentrated stock reaction mixture
The 2X concentrated stock reaction mixture is aliquoted and stored at -20°C. The mixture is stable and thawed for use in each assay. This enzyme assay has been adapted to a 96 well microtiter plate system, and has been previously described (6). Tris buffer (50 mM, pH 7.4), vehicle (solvent diluted to match the compound dilution), or compounds in vehicle are dispensed into 96-well miciotiter plates (10µl/well; 3 wells/compound). The HIV RT enzyme is thawed, diluted in 50mM Tris pH 7.4 so that fifteen µl of diluted enzyme contain 0.001 Unit (one unit is that amount of enzyme to transform 1 micromole of substrate per minute at 25°C), and 15µl are dispensed per well. Twenty µl of 0.12-0.5M EDTA are added to the first three wells of the microtiter plate. EDTA chelates the Mg⁺⁺ present and prevents reverse transcription. This group serves as background polymerization which is subtracted from all other groups. Twenty-five µl of the 2X reaction mixture are added to all wells and the assay is allowed to incubate at room temperature for 60 minutes. The assay is terminated by precipitating the DNA in each well with 50µl of trichloracetic acid (TCA) (10% w/v) in sodium pyrophosphate (1% w/v). The microtiter plate is incubated for 15 minutes at 4°C and the precipitate is fixed onto #30 glass fiber paper (Schleicher & Schuell) using a Skatron semi-automatic harvester. The filters are then washed with additional TCA (5%) containing sodium pyrophosphate (1%), rinsed with aqueous ethanol (70%), dried, and transferred to scintillation vials (6). Each vial receives 2 mls of scintillation cocktail and is counted in a Beckman beta counter.
The calculation for percent inhibition is as follows: [formula]

A short description of series [2]: MTT Assay for Cellular Cytotoxicity. To be noted: human, H9 cells, five days, EC₅₀ called the highest non-toxic concentration, read-out: Cytotoxity Assay (EC₅₀). It counts as cell-based. On the procedure:
In order to roughly assess the cytotoxicity of the compounds provided by the invention, several such compounds were tested in the MTT Cellular Cytotoxicity Assay described below. Compounds having a relatively high EC₅₀ are preferred.
The MTT [3-(4,5-dimethylthiazol-2-yl)-2,5-diphenyl tetrazolium bromide) assay is based on cleavage of tetrazolium bromide by metabolically active cells, resulting in a highly quantitative blue color. This assay has been previously described (1) but his been optimized for the purposes of the testing reported herein.
The H9 cell line (2), an established human lymphoma suspension cell line grown in RPMI 1640 supplemented with 10% fetal bovine serum is used as the target cell line in the assay. Cells (100µl) are plated in microtest plate wells at a concentration of 10⁵ cells per ml in the presence of varying concentrations of inhibitor. The cells are incubated at 37°C in a humidified CO₂ incubator. Five days later, 20µl of MTT (5mg/ml in RPMI 1640, sonicated, 0.2 micron filtered, and stored at 4°C) is added to each well. After 4 hours additional incubation at 37°C, 60µl of Triton-X is added to each well and thoroughly mixed to aid the solubilization of the crystals. Absolute ethanol (5µl) is added to each well and the resulting mixture is incubated for 30 minutes at 60°C and immediately read on a plate reader (Dynatech) at a wavelength of 570nm. […]

Series [3] relates to HTLV-IIIB strain of HIV-1. Description: Human T-Cell Culture Assay (syncytia formation in c8166 cells). It counts as cell-based. Conditions: Human immunodeficiency virus 1, IIIB, 96 h, syncytia four days after virus challenge. On the procedure:
In order to confirm that compounds which are active in the RT Assay also have the ability to inhibit HIV replication in a living system, compounds according to the invention were also tested in the Human T-Cell Culture Assay described below.
Assay Theory: Formation of syncytia is a feature of in vitro cultures of CD4+ T-cells infected with HIV-1. In this assay, T-cells are treated with a putative replication inhibiting compound and then infected with HIV-1. After incubation the culture is checked for the formation of syncytia. The absence or reduction is the number of syncytia is used as a measure of the test compound's ability to inhibit HIV replication.
Assay Method: The target cells, designated c8166, are a subclone of human lymphoma cells of T-cell origin and are established at an initial density of 5x10⁴ per 100 µl in RPMI 1640 (+ 10% fetal bovine serum) culture medium in 96 well flat bottom plates. A selected amount of test compound, dissolved in DMSO is included. After 24 hours, 50-100 TCID50's (the dose that results in induced effect in 50% of test cultures) of the HTLV-IIIB strain of HIV-1 (2) are innoculated into each culture. Control cultures receive compound or virus only. […] The percent inhibition by the test compound is determined by comparison with control values. […]

For the compound `C=C(Cl)CN1C(=O)c2ccccc2N(CC)c2ncccc21` [Example 1, 5-(2-Chloro-2-propenyl)-11-ethyl-5,11-dihydro-6H-pyrido [2,3-b][1,4]benzodiazepin-6-one], 10 µg/mL produced 41% inhibition in series [1].
Take `Cc1ccc2c(c1)C(=O)N(C)c1ccc(C)nc1N2C` [Example 2, 2,5,8,11-Tetramethyl-5,11-dihydro-6H-pyrido[2,3-b][1,4]benzodiazepin-6-one]: the inhibition at 10 µg/mL in series [1] came out at 50%.
Still for that read-out and setting: to `CCN1C(=O)c2cccc(C)c2N(CC)c2ncccc21` [Example 3, 5,11-Diethyl-10-methyl-5,11-dihydro-6H-pyrido[2,3-b][1,4]benzodiazepin-6-one] belongs 87%.
`CCN1c2ccc(C)cc2C(=O)N(C)c2cccnc21` [Example 4, 5,8-Dimethy-11-ethyl-5,11-dihydro-6H-pyrido[2,3-b][1,4]benzodiazepin-6-one]: in series [2], the CC50 at 120 h amounted to 40 µM. The compound also displayed an inhibition at 10 µg/mL in series [1] of 91%. In addition, the inhibition at 19 µM in series [3] (@19µM) came to 100%.
In turn, `Cc1ccc2c(n1)N(C)c1c(C)cccc1C(=O)N2C` [Example 5, 2,5,10,11-Tetramethyl-5,11-dihydro-6H-pyrido[2,3-b][1,4]benzodiazepin-6-one] came in with an inhibition at 10 µg/mL in series [1] of 84%.
As for `CC(C)(C)OC(=O)CN1c2ccccc2C(=O)Nc2cccnc21` [Example 6], in series [1], at 10 µg/mL the inhibition was 86%.
Same read-out and setting: to `CCN1C(=O)c2ccccc2N(C)c2nc(Cl)ccc21` [Example 7, 2-Chloro-5-ethyl-11-methyl-5,11-dihydro-6H-pyrido[2,3-b] [1,4]benzodiazepin-6-one] belongs 43%.
In the case of `Cc1ccc2c(c1)C(=O)N(C)c1cccnc1N2C` [Example 8, 5,8,11-Trimethyl-5,11-dihydro-6H-pyrido[2,3-b][1,4]benzodiazepin-6-one], the inhibition at 10 µg/mL in series [1] is 40%.
For `CN1c2ccccc2C(=O)Nc2cccnc21` [Example 9a, 11-Methyl-5,11-dihydro-6H-pyrido[2,3-b][1,4]benzodiazepin-6-one], the inhibition at 10 µg/mL in series [1] stood at 17%.
In series [1], `CCN1c2ccccc2C(=O)Nc2cccnc21` [Example 9b, 11-Ethyl-5,11-dihydro-6H-pyrido[2,3-b][1,4]benzodiazepin-6-one] came in with an inhibition at 10 µg/mL of 82%.
Take `O=C1Nc2cccnc2Nc2ccccc21` [Example 9c, 5,11-dihydro-6H-pyrido[2,3-b][1,4]benzodiazepin-6-one]: testing at 10 µg/mL in series [1] gave an inhibition of 55%.
In turn, `CCN1C(=O)c2ccccc2N(C)c2ncccc21` [Example 9d, 5-Ethyl-11-methyl-5,11-dihydro-6H-pyrido[2,3-b][1,4]benzodiazepin-6-one] gave an inhibition at 10 µg/mL in series [1] of 24%.
`CCCN1C(=O)c2ccccc2N(C)c2ncccc21` [Example 9e, 5-n-Propyl-11-methyl-5,11-dihydro-6H-pyrido[2,3-b][1,4]benzodiazepin-6-one]: the inhibition at 10 µg/mL in series [1] was 38%.
In series [1], `CCN1c2ccccc2C(=O)N(C)c2cccnc21` [Example 9f, 5-Methyl-11-ethyl-5,11-dihydro-6H-pyrido[2,3-b][1,4]benzodiazepin-6-one] registered an inhibition at 10 µg/mL of 94%.
`CCN1C(=O)c2ccccc2N(CC)c2ncccc21` [Example 9g, 5,11-Diethyl-5,11-dihydro-6H-pyrido[2,3-b][1,4]benzodiazepin-6-one]: the CC50 at 120 h in series [2] came to 100 µM. Moreover, the inhibition at 10 µg/mL in series [1] stood at 87%. In addition, in series [3] (@75µM), the inhibition at 75 µM was determined as 100%.
`C=CCN1C(=O)c2ccccc2N(CC)c2ncccc21` [Example 9h, 5-(2-Propenyl)-11-ethyl-5,11-dihydro-6H-pyrido[2,3-b][1,4]benzodiazepin-6-one]: in series [1], the inhibition at 10 µg/mL was 70%.
